# Measured values: patent US8952024B2, “Herbicidal pyrimidone derivatives” (E I du Pont de Nemours and Company, priority 2009, dated 2015)
# Columns and labels:
# Experiment in all cases: Test B pre-/postemergence plant response
# Format in all cases: in vivo
# [1] = test system: bermudagrass (Cynodon dactylon); conditions: for Bermudagrass plant response rating (0 to 100 scale): 0 is no effect
# Procedure, shortened: (§1)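 Seeds sown in loam–sand blend were treated preemergence, and plants at 2–18 cm (1- to 4-leaf stage) in peat-based medium were treated postemergence; compounds were formulated in non-phytotoxic solvent with surfactant. After 13–15 days in greenhouse, response was visually rated against controls, 0 (no effect) to 100 (complete control).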
# [2] = test system: goosegrass (Eleusine indica); conditions: for Goosegrass plant response rating (0 to 100 scale): 0 is no effect
# Procedure, shortened: as §1
# [3] = test system: green foxtail (Setaria viridis); conditions: for Foxtail, Green plant response rating (0 to 100 scale): 0 is no effect
# Procedure, shortened: as §1
# [4] = test system: johnsongrass (Sorghum halepense); conditions: for Johnsongrass plant response rating (0 to 100 scale): 0 is no effect
# Procedure, shortened: as §1
# kochia (Kochia scoparia) = conditions: for Kochia plant response rating (0 to 100 scale): 0 is no effect
# Procedure, shortened: as §1
# [5] = test system: lambsquarters (Chenopodium album); conditions: for Lambsquarters plant response rating (0 to 100 scale): 0 is no effect
# Procedure, shortened: as §1
# [6] = test system: large crabgrass (Digitaria sanguinalis); conditions: for Crabgrass, Large plant response rating (0 to 100 scale): 0 is no effect
# Procedure, shortened: as §1
# [7] = test system: ragweed (common ragweed, Ambrosia elatior); conditions: for Ragweed plant response rating (0 to 100 scale): postemergence, 0 is no effect, 100 is complete control
# Procedure, shortened: as §1
# soybean (Glycine max) = conditions: for Soybean plant response rating (0 to 100 scale): postemergence, 0 is no effect, 100 is complete control
# Procedure, shortened: as §1
# [8] = test system: velvetleaf (Abutilon theophrasti); conditions: for Velvetleaf plant response rating (0 to 100 scale): postemergence, 0 is no effect, 100 is complete control
# Procedure, shortened: as §1
# [9] = test system: wheat (Triticum aestivum); conditions: for Wheat plant response rating (0 to 100 scale): postemergence, 0 is no effect, 100 is complete control
# Procedure, shortened: as §1
# [10] = test system: woolly cupgrass (Eriochloa villosa); conditions: for Cupgrass, Woolly plant response rating (0 to 100 scale): 0 is no effect
# Procedure, shortened: as §1
# [11] = test system: yellow nutsedge (Cyperus esculentus); conditions: for Nutsedge, Yellow plant response rating (0 to 100 scale): 0 is no effect
# Procedure, shortened: as §1
# [12] = 62 g ai/ha, postemergence, 100 is complete control, 13 to 15 days
# [13] = Postemergence, 31 g ai/ha, 0 to 100 scale (0 no effect, 100 complete control)
# [14] = Postemergence, 125 g ai/ha, scale 0 to 100 (0 no effect, 100 complete control)
# [15] = Postemergence, 250 g ai/ha, scale 0 to 100 (0 no effect, 100 complete control), 13 to 15 days
# [16] = 31 g ai/ha, postemergence, scale 0 to 100, 0 is no effect, 100 is complete control
# [17] = Postemergence, 250 g ai/ha, scale 0 to 100 (0 no effect, 100 complete control)
# [18] = Preemergence, 31 g ai/ha, scale 0 to 100 (0 no effect, 100 complete control)
# [19] = Preemergence, 62 g ai/ha, scale 0 to 100 (0 no effect, 100 complete control)
# [20] = Preemergence, 125 g ai/ha, scale 0 to 100, 0 no effect, 100 complete control
# [21] = Preemergence, 250 g ai/ha, 0 to 100 scale
smiles,measurement,setting,value
CCCCn1c(-c2cccc(Cl)c2)ncc(C(=O)C2=C(O)CCCC2=O)c1=O [Compound 146],Bermudagrass plant response rating (0 to 100 scale),[1]; [12],90
same,"Plant response rating, Bermudagrass",[1]; [13],85
same,"Plant response rating, Bermudagrass",[1]; [14],100
same,"Plant response rating, Bermudagrass",[1]; [15],100
same,Goosegrass plant response rating (0 to 100 scale),[2]; [12],90
same,"Plant response rating, Goosegrass",[2]; [13],75
same,"Plant response rating, Goosegrass",[2]; [14],95
same,"Plant response rating, Goosegrass",[2]; [15],95
same,"Foxtail, Green plant response rating (0 to 100 scale)",[3]; [12],55
same,"Plant response rating, Foxtail, Green",[3]; [13],50
same,"Plant response rating, Foxtail, Green",[3]; [14],80
same,"Plant response rating, Foxtail, Green",[3]; [15],90
same,Johnsongrass plant response rating (0 to 100 scale),[4]; [12],45
same,"Plant response rating, Johnsongrass",[4]; [13],45
same,"Plant response rating, Johnsongrass",[4]; [14],70
same,"Plant response rating, Johnsongrass",[4]; [15],95
same,Kochia plant response rating (0 to 100 scale),kochia (Kochia scoparia); [12],45
same,"Plant response rating, Kochia",kochia (Kochia scoparia); [13],40
same,"Plant response rating, Kochia",kochia (Kochia scoparia); [14],85
same,"Plant response rating, Kochia",kochia (Kochia scoparia); [15],90
same,Lambsquarters plant response rating (0 to 100 scale),[5]; [12],98
same,"Plant response rating, Lambsquarters",[5]; [13],95
same,"Plant response rating, Lambsquarters",[5]; [14],100
same,"Plant response rating, Lambsquarters",[5]; [15],100
same,"Crabgrass, Large plant response rating (0 to 100 scale)",[6]; [12],75
same,"Plant response rating, Crabgrass, Large",[6]; [13],65
same,"Plant response rating, Crabgrass, Large",[6]; [14],85
same,"Plant response rating, Crabgrass, Large",[6]; [15],98
same,Ragweed plant response rating (0 to 100 scale),"[7]; 62 g ai/ha, 13 to 15 days",80
same,"Plant response rating, Ragweed",[7]; [13],65
same,"Plant response rating, Ragweed",[7]; [14],98
same,"Plant response rating, Ragweed",[7]; [15],98
same,Soybean plant response rating (0 to 100 scale),"soybean (Glycine max); 62 g ai/ha, 13 to 15 days",85
same,"Plant response rating, Soybean",soybean (Glycine max); [13],70
same,"Plant response rating, Soybean",soybean (Glycine max); [14],98
same,"Plant response rating, Soybean",soybean (Glycine max); [15],100
same,Velvetleaf plant response rating (0 to 100 scale),"[8]; 62 g ai/ha, 13 to 15 days",85
same,"Plant response rating, Velvetleaf",[8]; [13],80
same,"Plant response rating, Velvetleaf",[8]; [14],98
same,"Plant response rating, Velvetleaf",[8]; [15],100
same,Wheat plant response rating (0 to 100 scale),"[9]; 62 g ai/ha, 13 to 15 days",0
same,"Plant response rating, Wheat",[9]; [13],0
same,"Plant response rating, Wheat",[9]; [14],15
same,"Plant response rating, Wheat",[9]; [15],45
same,"Cupgrass, Woolly plant response rating (0 to 100 scale)",[10]; [12],65
same,"Plant response rating, Cupgrass, Woolly",[10]; [13],60
same,"Plant response rating, Cupgrass, Woolly",[10]; [14],65
same,"Plant response rating, Cupgrass, Woolly",[10]; [15],75
same,"Nutsedge, Yellow plant response rating (0 to 100 scale)",[11]; [12],10
same,"Plant response rating, Nutsedge, Yellow",[11]; [13],5
same,"Plant response rating, Nutsedge, Yellow",[11]; [14],20
same,"Plant response rating, Nutsedge, Yellow",[11]; [15],40
COCCCn1c(-c2cc(F)cc(F)c2)ncc(C(=O)C2=C(O)CCCC2=O)c1=O [Compound 120],"Plant response rating, Bermudagrass",[1]; [16],80
same,Bermudagrass plant response rating (0 to 100 scale),[1]; [12],95
same,"Plant response rating, Bermudagrass",[1]; [14],98
same,"Plant response rating, Bermudagrass",[1]; [17],98
same,"Plant response rating, Bermudagrass",[1]; [18],100
same,"Plant response rating, Bermudagrass",[1]; [19],100
same,"Plant response rating, Bermudagrass",[1]; [20],100
same,Bermudagrass plant response rating,"[1]; Preemergence, 250 g ai/ha, 0 to 100 scale, 0 no effect, 100 complete control",100
same,"Plant response rating, Goosegrass",[2]; [16],75
same,Goosegrass plant response rating (0 to 100 scale),[2]; [12],80
same,"Plant response rating, Goosegrass",[2]; [14],85
same,"Plant response rating, Goosegrass",[2]; [17],98
same,"Plant response rating, Goosegrass",[2]; [18],100
same,"Plant response rating, Goosegrass",[2]; [19],100
same,"Plant response rating, Goosegrass",[2]; [20],100
same,Goosegrass plant response rating,[2]; [21],100
same,"Plant response rating, Foxtail, Green",[3]; [16],90
same,"Foxtail, Green plant response rating (0 to 100 scale)",[3]; [12],95
same,"Plant response rating, Foxtail, Green",[3]; [14],95
same,"Plant response rating, Foxtail, Green",[3]; [17],100
same,"Plant response rating, Foxtail, Green",[3]; [18],95
same,"Plant response rating, Foxtail, Green",[3]; [19],98
same,"Plant response rating, Foxtail, Green",[3]; [20],100
same,"Foxtail, Green plant response rating",[3]; [21],100
same,"Plant response rating, Johnsongrass",[4]; [16],15
same,Johnsongrass plant response rating (0 to 100 scale),[4]; [12],25
same,"Plant response rating, Johnsongrass",[4]; [14],75
same,"Plant response rating, Johnsongrass",[4]; [17],80
same,"Plant response rating, Johnsongrass",[4]; [18],35
same,"Plant response rating, Johnsongrass",[4]; [19],70
same,"Plant response rating, Johnsongrass",[4]; [20],80
same,Johnsongrass plant response rating,[4]; [21],90
same,"Plant response rating, Kochia",kochia (Kochia scoparia); [16],10
same,Kochia plant response rating (0 to 100 scale),kochia (Kochia scoparia); [12],40
same,"Plant response rating, Kochia",kochia (Kochia scoparia); [14],80
same,"Plant response rating, Kochia",kochia (Kochia scoparia); [17],98
same,"Plant response rating, Kochia",kochia (Kochia scoparia); [18],0
same,"Plant response rating, Kochia",kochia (Kochia scoparia); [19],20
same,"Plant response rating, Kochia",kochia (Kochia scoparia); [20],50
same,Kochia plant response rating,kochia (Kochia scoparia); [21],75
same,"Plant response rating, Lambsquarters",[5]; [16],80
same,Lambsquarters plant response rating (0 to 100 scale),[5]; [12],85
same,"Plant response rating, Lambsquarters",[5]; [14],98
same,"Plant response rating, Lambsquarters",[5]; [17],100
same,"Plant response rating, Lambsquarters",[5]; [18],100
same,"Plant response rating, Lambsquarters",[5]; [19],100
same,"Plant response rating, Lambsquarters",[5]; [20],100
same,Lambsquarters plant response rating,[5]; [21],100
same,"Plant response rating, Crabgrass, Large",[6]; [16],80
same,"Crabgrass, Large plant response rating (0 to 100 scale)",[6]; [12],85
same,"Plant response rating, Crabgrass, Large",[6]; [14],95
same,"Plant response rating, Crabgrass, Large",[6]; [17],98
same,"Plant response rating, Crabgrass, Large",[6]; [18],98
same,"Plant response rating, Crabgrass, Large",[6]; [19],100
same,"Plant response rating, Crabgrass, Large",[6]; [20],100
same,"Crabgrass, Large plant response rating",[6]; [21],100
same,Ragweed plant response rating (0 to 100 scale),"[7]; 62 g ai/ha, 13 to 15 days",75
same,"Plant response rating, Ragweed",[7]; [14],75
same,"Plant response rating, Ragweed",[7]; [17],80
same,"Plant response rating, Ragweed",[7]; [18],80
same,"Plant response rating, Ragweed",[7]; [19],80
same,"Plant response rating, Ragweed",[7]; [20],95
same,Ragweed plant response rating,[7]; [21],95
same,Soybean plant response rating (0 to 100 scale),"soybean (Glycine max); 62 g ai/ha, 13 to 15 days",80
same,"Plant response rating, Soybean",soybean (Glycine max); [14],95
same,"Plant response rating, Soybean",soybean (Glycine max); [17],98
same,"Plant response rating, Soybean",soybean (Glycine max); [18],15
same,"Plant response rating, Soybean",soybean (Glycine max); [19],70
same,"Plant response rating, Soybean",soybean (Glycine max); [20],80
same,Soybean plant response rating,soybean (Glycine max); [21],80
same,Velvetleaf plant response rating (0 to 100 scale),"[8]; 62 g ai/ha, 13 to 15 days",95
same,"Plant response rating, Velvetleaf",[8]; [14],98
same,"Plant response rating, Velvetleaf",[8]; [17],100
same,"Plant response rating, Velvetleaf",[8]; [18],80
same,"Plant response rating, Velvetleaf",[8]; [19],100
same,"Plant response rating, Velvetleaf",[8]; [20],100
same,Velvetleaf plant response rating,[8]; [21],100
same,Wheat plant response rating (0 to 100 scale),"[9]; 62 g ai/ha, 13 to 15 days",40
same,"Plant response rating, Wheat",[9]; [14],60
same,"Plant response rating, Wheat",[9]; [18],0
same,"Plant response rating, Wheat",[9]; [19],0
same,"Plant response rating, Wheat",[9]; [20],25
same,Wheat plant response rating,[9]; [21],30
same,"Plant response rating, Cupgrass, Woolly",[10]; [16],70
same,"Cupgrass, Woolly plant response rating (0 to 100 scale)",[10]; [12],75
same,"Plant response rating, Cupgrass, Woolly",[10]; [14],100
same,"Plant response rating, Cupgrass, Woolly",[10]; [17],100
same,"Plant response rating, Cupgrass, Woolly",[10]; [18],50
same,"Plant response rating, Cupgrass, Woolly",[10]; [19],70
same,"Plant response rating, Cupgrass, Woolly",[10]; [20],75
same,"Cupgrass, Woolly plant response rating",[10]; [21],90
same,"Plant response rating, Nutsedge, Yellow",[11]; [16],5
same,"Nutsedge, Yellow plant response rating (0 to 100 scale)",[11]; [12],35
same,"Plant response rating, Nutsedge, Yellow",[11]; [14],65
same,"Plant response rating, Nutsedge, Yellow",[11]; [17],75
same,"Plant response rating, Nutsedge, Yellow",[11]; [18],70
same,"Plant response rating, Nutsedge, Yellow",[11]; [19],90
same,"Plant response rating, Nutsedge, Yellow",[11]; [20],98
same,"Nutsedge, Yellow plant response rating",[11]; [21],98
